Assay results published in patent US11116757B2 (priority 2015, dated 2021).

Biological target: DCN1-UBC12 interaction (Homo sapiens (Human), UniProt Q96GG9)
Assay: biochemical
Type: binding
Conditions: Table 6, commercial compounds; read-out: TR-FRET IC50

Chain of DCN1-UBC12 interaction (Q96GG9 60-248 limits assumed): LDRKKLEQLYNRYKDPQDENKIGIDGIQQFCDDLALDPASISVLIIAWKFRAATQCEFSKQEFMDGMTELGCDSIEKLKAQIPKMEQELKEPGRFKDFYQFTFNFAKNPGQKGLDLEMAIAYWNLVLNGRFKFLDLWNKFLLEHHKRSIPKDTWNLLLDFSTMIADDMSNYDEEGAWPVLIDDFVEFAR

Row | Structure (SMILES) | IC50 [µM]
1 | COCc1c(C(=O)N2CCN(C(C)C)CC2)cnn1-c1ncc(C)c(-c2cccs2)n1 [E21] | 49.2
2 | CCN(CC)CCN(CC)C(=O)c1cnn(-c2nccc(-c3cccs3)n2)c1COC [E22] | 54.9
3 | CCN1CCN(C(=O)c2cnn(-c3nccc(-c4cccs4)n3)c2C)CC1 [E23] | 57.9
4 | CC(=O)N1CCN(C(=O)c2cnn(-c3nccc(-c4cccs4)n3)c2C2CC2)CC1 [E24] | 61.6
5 | CCN(CC)C(=O)c1cnn(-c2nccc(-c3cccs3)n2)c1C [E25] | 63
6 | CCN(CC)C(=O)c1cnn(-c2ncc(C)c(-c3cccs3)n2)c1C1CC1 [E26] | 65.2
7 | CCCN1CCN(C(=O)c2cnn(-c3nccc(-c4cccs4)n3)c2COC)CC1 [E27] | > 16.7
8 | CCN(CC)CCNC(=O)c1cnn(-c2ncc(C)c(-c3cccs3)n2)c1C1CC1 [E28] | > 37.4
9 | Cc1cnc(-n2ncc(C(=O)NCCC(C)C)c2C)nc1-c1cccs1 [E29] | > 67.6
10 | COCCN1CCN(C(=O)c2cnn(-c3ncc(C)c(-c4cccs4)n3)c2C2CC2)CC1 [E30] | > 67.6
11 | CCN(CC)CCNC(=O)c1cnn(-c2nccc(-c3cccs3)n2)c1COC [E31] | > 67.6
12 | COCCN1CCN(C(=O)c2cnn(-c3ncc(C)c(-c4cccs4)n3)c2C)CC1 [E32] | > 67.6
13 | CN1CCN(C(=O)c2cnn(-c3nccc(-c4cccs4)n3)c2C2CC2)CC1 [E33] | > 67.6
14 | CCN(CC)CCN(C)C(=O)c1cnn(-c2nccc(-c3cccs3)n2)c1C1CC1 [E34] | > 67.6
15 | Cc1cnc(-n2ncc(C(=O)N3CCN(C(C)C)CC3)c2C)nc1-c1cccs1 [E35] | > 67.6
16 | CCN(CC)CCNC(=O)c1cnn(-c2nccc(-c3cccs3)n2)c1C1CC1 [E36] | > 67.6
17 | CN(C)CC(C)(C)CNC(=O)c1cnn(-c2nccc(-c3cccs3)n2)c1C1CC1 [E37] | > 67.6
18 | CCN(CC)CCN(C)C(=O)c1cnn(-c2ncc(C)c(-c3cccs3)n2)c1COC [E38] | > 67.6
19 | C=CCN(CC=C)C(=O)c1cnn(-c2nccc(-c3cccs3)n2)c1COC [E39] | > 67.6

Row | Structure (SMILES) | IC50 [µM]
20 | Cc1cnc(-n2ncc(C(=O)N3CCN(C(C)C)CC3)c2C2CC2)nc1-c1cccs1 [E40] | > 67.6
21 | Cc1cnc(-n2ncc(C(=O)N(C)CC(C)C)c2C)nc1-c1cccs1 [E41] | > 67.6
22 | CCCCN(C)C(=O)c1cnn(-c2ncc(C)c(-c3cccs3)n2)c1C [E42] | > 67.6
23 | CC(C)N1CCN(C(=O)c2cnn(-c3nccc(-c4cccs4)n3)c2C2CC2)CC1 [E43] | > 67.6
24 | CCN1CCN(C(=O)c2cnn(-c3ncc(C)c(-c4cccs4)n3)c2C2CC2)CC1 [E44] | > 67.6
25 | COCCN(C(=O)c1cnn(-c2nccc(-c3cccs3)n2)c1C)C(C)C [E45] | > 67.6
26 | CCN(CCN(C)C)C(=O)c1cnn(-c2ncc(C)c(-c3cccs3)n2)c1COC [E46] | > 67.6
27 | Cc1c(C(=O)NCC(C)(C)CN(C)C)cnn1-c1nccc(-c2cccs2)n1 [E47] | > 67.6
28 | C=CCN(CC=C)C(=O)c1cnn(-c2ncc(C)c(-c3cccs3)n2)c1C [E48] | > 67.6
29 | Cc1c(C(=O)N2CCN(C)CC2)cnn1-c1nccc(-c2cccs2)n1 [E49] | > 67.6
30 | CC(=O)N1CCN(C(=O)c2cnn(-c3ncc(C)c(-c4cccs4)n3)c2C2CC2)CC1 [E50] | > 67.6
31 | CSCCCNC(=O)c1cnn(-c2nccc(-c3cccs3)n2)c1C [E51] | > 67.6
32 | COCCN(C)C(=O)c1cnn(-c2nccc(-c3cccs3)n2)c1C [E52] | > 67.6
33 | CCN(CCN(C)C)C(=O)c1cnn(-c2ncc(C)c(-c3cccs3)n2)c1C1CC1 [E53] | > 67.6
34 | CCN(CC)CCNC(=O)c1cnn(-c2nccc(-c3cccs3)n2)c1C [E54] | > 67.6
35 | Cc1cnc(-n2ncc(C(=O)N3CCN(C)CC3)c2C2CC2)nc1-c1cccs1 [E55] | > 67.6
36 | CCOC(=O)CCNC(=O)c1cnn(-c2ncc(C)c(-c3cccs3)n2)c1C [E56] | > 67.6
37 | CCN(CC)C(=O)c1cnn(-c2ncc(C)c(-c3cccs3)n2)c1C [E57] | > 67.6
38 | CCCN1CCN(C(=O)c2cnn(-c3nccc(-c4cccs4)n3)c2C2CC2)CC1 [E58] | > 67.6
